In patent US10988523B2, “Modified lipidated Relaxin B chain peptides and their therapeutic use” (Sanofi, priority 2018, dated 2021):
*1 amine or outer side, *2 acyl side, *3 side chain or, on linkers, in order; H or OH if unused. Where a SMILES comes first, the peptide text is derived from it. Side-chain parts run from the residue outwards. [ ]: non-standard residue; d: D form. The star is where a group is joined. X10 = CCCCCCCCCCCCCCCC(=O)N[C@@H](CCC(=O)N[C@@H](CCC(=O)N[C@@H](CCC(=O)NCCCOCCOCCOCCCNC(=O)CCC(=O)NCCCOCCOCCOCCCN*)C(=O)O)C(=O)O)C(=O)O; PEG12 = NCCOCCOCCOCCOCCOCCOCCOCCOCCOCCOCCOCCOCCC(=O)O; Lys(Me3) = C[N+](C)(C)CCCC[C@H](N)C(=O)O; Heptadecanoyl = CCCCCCCCCCCCCCCCC(=O)*; γGlu = O=C(O)[C@H](CCC(=O)[*:2])N[*:1]; 1Nal = N[C@@H](Cc1cccc2ccccc12)C(=O)O; Arg(Me) = CNC(=N)NCCC[C@H](N)C(=O)O; Stearoyl = CCCCCCCCCCCCCCCCCC(=O)*; Palmitoyl = CCCCCCCCCCCCCCCC(=O)*; Suc = O=C(CCC(=O)[*:2])[*:1]; Nle = CCCC[C@H](N)C(=O)O; AEEA = NCCOCCOCC(=O)O; Aib = CC(C)(N)C(=O)O

Molecular target: T1, RXFP1 (Homo sapiens, UniProt Q9HBX9)
T1 construct: OVCAR5 cells expressing endogenous RXFP1; endogenous in cells; host or cells: OVCAR5 cells
T1 sequence (Q9HBX9 1-757): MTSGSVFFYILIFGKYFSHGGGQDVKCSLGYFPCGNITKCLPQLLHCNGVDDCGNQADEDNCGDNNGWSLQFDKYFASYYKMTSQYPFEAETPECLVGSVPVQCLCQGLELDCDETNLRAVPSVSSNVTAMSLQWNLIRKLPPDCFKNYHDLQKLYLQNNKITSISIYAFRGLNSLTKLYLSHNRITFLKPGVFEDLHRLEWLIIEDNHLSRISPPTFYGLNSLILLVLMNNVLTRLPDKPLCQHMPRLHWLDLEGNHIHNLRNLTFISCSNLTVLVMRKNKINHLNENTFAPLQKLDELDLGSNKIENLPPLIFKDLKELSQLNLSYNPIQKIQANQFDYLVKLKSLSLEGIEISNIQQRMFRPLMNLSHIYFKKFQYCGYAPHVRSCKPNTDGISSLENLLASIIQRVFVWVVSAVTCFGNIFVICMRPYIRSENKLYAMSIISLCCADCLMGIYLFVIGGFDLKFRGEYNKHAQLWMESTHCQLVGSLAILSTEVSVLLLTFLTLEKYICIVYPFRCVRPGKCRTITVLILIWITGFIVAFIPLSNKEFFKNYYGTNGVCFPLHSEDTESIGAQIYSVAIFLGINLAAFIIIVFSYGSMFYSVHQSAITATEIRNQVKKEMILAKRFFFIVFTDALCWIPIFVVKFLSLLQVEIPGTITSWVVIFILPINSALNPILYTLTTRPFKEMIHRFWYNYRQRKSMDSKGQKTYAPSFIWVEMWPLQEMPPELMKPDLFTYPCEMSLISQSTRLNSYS
Assay: OVCAR5 cAMP assay (HTRF), RXFP1 agonist activity
Format: cell-based
Conditions: for Emax: OVCAR-5, maximal cAMP relative to H2-relaxin maximum (100%), read-out: EMax, OVCAR 5 cells (cAMP); for EC50: OVCAR5 cells, cAMP HTRF, read-out: EC50 (nM), OVCAR 5 cells (cAMP)
Outline: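 cAMP accumulation readout: after 1 mM IBMX for 40 min, endogenous-RXFP1 OVCAR5 cells got rising peptide concentrations without FCS, 30 min, 37° C, then lysis with HTRF cAMP reagents. Nonlinear regression gave EC50; Emax expressed relative to H2-relaxin maximum, same occasion.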

Emax [%]	EC50 [nM]	SMILES
95		CCCCCCCCCCCCCCCCCC(=O)N[C@@H](CCC(=O)N[C@@H](CCC(=O)N[C@@H](CCC(=O)NCCCC[C@H](NC(=O)CCOCCOCCOCCOCCOCCOCCOCCOCCOCCOCCOCCOCCNC(=O)[C@H](CCCCN)NC(=O)[C@H](CCCNC(=N)N)NC(=O)C(C)(C)NC(=O)[C@H](CO)NC(=O)[C@H](Cc1c[nH]c2ccccc12)NC(=O)[C@@H](NC(=O)[C@H](CO)NC(=O)[C@H](CCSC)NC(=O)CNC(=O)[C@H](CCC(=O)O)NC(=O)C(C)(C)NC(=O)C(C)(C)NC(=O)[C@@H](NC(=O)[C@H](CCCCNC(C)=O)NC(=O)[C@H](C)NC(=O)[C@H](CCCNC(=N)N)NC(=O)[C@@H](NC(=O)[C@H](CCCCN)NC(=O)[C@H](CCC(=O)O)NC(=O)[C@H](CCCNC(=N)N)NC(=O)CNC(=O)[C@H](CCC(=O)O)NC(=O)[C@H](CC(C)C)NC(C)=O)C(C)C)[C@@H](C)CC)[C@@H](C)O)C(N)=O)C(=O)O)C(=O)O)C(=O)O [compound 35] (Ac-LEGREKVRAK(Ac)I[Aib][Aib]EGMSTWS[Aib]RK[PEG12]K([γGlu-γGlu-γGlu-Stearoyl])-NH2)
86		CCCCCCCCCCCCCCCC(=O)N[C@@H](CCC(=O)N[C@@H](CCC(=O)N[C@@H](CCC(=O)N[C@@H](CCC(=O)NCCOCCOCC(=O)NCCOCCOCC(=O)NCCOCCOCC(=O)NCCOCCOCC(=O)NCCCC[C@H](NC(=O)[C@H](CCCCNC(C)=O)NC(=O)[C@H](CCCCN)NC(=O)[C@H](CCCNC(=N)N)NC(=O)C(C)(C)NC(=O)[C@H](CO)NC(=O)[C@H](Cc1ccccc1)NC(=O)[C@@H](NC(=O)[C@H](CO)NC(=O)[C@H](CCCC)NC(=O)CNC(=O)[C@H](CCC(=O)O)NC(=O)C(C)(C)NC(=O)C(C)(C)NC(=O)[C@@H](NC(=O)[C@H](CCCCNC(C)=O)NC(=O)[C@H](C)NC(=O)[C@H](CCCNC(=N)N)NC(=O)[C@@H](NC(=O)[C@H](CCCCN)NC(=O)[C@H](CCC(=O)O)NC(=O)[C@H](CCCNC(=N)N)NC(=O)CNC(=O)[C@H](CCC(=O)O)NC(=O)[C@H](CC(C)C)NC(C)=O)C(C)C)[C@@H](C)CC)[C@@H](C)O)C(N)=O)C(=O)O)C(=O)O)C(=O)O)C(=O)O [compound 147] (Ac-LEGREKVRAK(Ac)I[Aib][Aib]EG[Nle]STFS[Aib]RKK(Ac)K([AEEA-AEEA-AEEA-AEEA-γGlu-γGlu-γGlu-γGlu-Palmitoyl])-NH2)
92	0.26	CCCCCCCCCCCCCCCC(=O)N[C@@H](CCC(=O)N[C@@H](CCC(=O)N[C@@H](CCC(=O)NCCCOCCOCCOCCCNC(=O)CCC(=O)NCCCOCCOCCOCCCNC(=O)CCC(=O)NCCCC[C@H](NC(=O)[C@H](CCCCNC(C)=O)NC(=O)[C@H](CCCCN)NC(=O)[C@H](CCCNC(=N)N)NC(=O)C(C)(C)NC(=O)[C@H](CO)NC(=O)[C@H](Cc1c[nH]c2ccccc12)NC(=O)[C@@H](NC(=O)[C@H](CO)NC(=O)[C@H](CCCC)NC(=O)CNC(=O)[C@H](CCC(=O)O)NC(=O)C(C)(C)NC(=O)C(C)(C)NC(=O)[C@@H](NC(=O)[C@H](CCCCNC(C)=O)NC(=O)[C@H](C)NC(=O)[C@H](CCCNC(=N)N)NC(=O)[C@@H](NC(=O)[C@H](CCCCN)NC(=O)[C@H](CCC(=O)O)NC(=O)[C@H](CCCNC(=N)N)NC(=O)CNC(=O)[C@H](CCC(=O)O)NC(=O)[C@H](CC(C)C)NC(C)=O)C(C)C)[C@@H](C)CC)[C@@H](C)O)C(N)=O)C(=O)O)C(=O)O)C(=O)O [compound 166] (Ac-LEGREKVRAK(Ac)I[Aib][Aib]EG[Nle]STWS[Aib]RKK(Ac)K([Suc-X10])-NH2)
90	0.12	CCCCCCCCCCCCCCCCCC(=O)N[C@@H](CCC(=O)N[C@@H](CCC(=O)N[C@@H](CCC(=O)NCCOCCOCC(=O)NCCOCCOCC(=O)NCCCC[C@H](NC(=O)[C@H](CCCCN)NC(=O)[C@H](CCCNC(=N)N)NC(=O)C(C)(C)NC(=O)[C@H](CO)NC(=O)[C@H](Cc1c[nH]c2ccccc12)NC(=O)[C@@H](NC(=O)[C@H](CO)NC(=O)[C@H](CCCC)NC(=O)CNC(=O)[C@H](CCC(=O)O)NC(=O)C(C)(C)NC(=O)C(C)(C)NC(=O)[C@@H](NC(=O)[C@H](CCCCNC(C)=O)NC(=O)[C@H](C)NC(=O)[C@H](CCCNC(=N)N)NC(=O)[C@@H](NC(=O)[C@H](CCCCN)NC(=O)[C@H](CCC(=O)O)NC(=O)[C@H](CCCNC(=N)N)NC(=O)CNC(=O)[C@H](CCC(=O)O)NC(=O)[C@H](CC(C)C)NC(C)=O)C(C)C)[C@@H](C)CC)[C@@H](C)O)C(N)=O)C(=O)O)C(=O)O)C(=O)O [compound 73] (Ac-LEGREKVRAK(Ac)I[Aib][Aib]EG[Nle]STWS[Aib]RKK([AEEA-AEEA-γGlu-γGlu-γGlu-Stearoyl])-NH2)
95		CCCCCCCCCCCCCCCCCC(=O)N[C@@H](CCC(=O)NCCOCCOCC(=O)NCCOCCOCC(=O)NCCCC[C@H](NC(=O)[C@H](CCCCN)NC(=O)[C@H](CCCNC(=N)N)NC(=O)C(C)(C)NC(=O)[C@H](CO)NC(=O)[C@H](Cc1c[nH]c2ccccc12)NC(=O)[C@@H](NC(=O)[C@H](CO)NC(=O)[C@H](CCCC)NC(=O)CNC(=O)[C@H](CCC(=O)O)NC(=O)C(C)(C)NC(=O)C(C)(C)NC(=O)[C@@H](NC(=O)[C@H](CCC(N)=O)NC(=O)[C@H](C)NC(=O)[C@H](CCCNC(=N)N)NC(=O)[C@@H](NC(=O)[C@H](CCCCN)NC(=O)[C@H](CCC(=O)O)NC(=O)[C@H](CCCNC(=N)N)NC(=O)CNC(=O)[C@H](CCC(=O)O)NC(=O)[C@H](CC(C)C)NC(C)=O)C(C)C)[C@@H](C)CC)[C@@H](C)O)C(N)=O)C(=O)O [compound 56] (Ac-LEGREKVRAQI[Aib][Aib]EG[Nle]STWS[Aib]RKK([AEEA-AEEA-γGlu-Stearoyl])-NH2)
71		CCCCCCCCCCCCCCCCCC(=O)N[C@@H](CCC(=O)N[C@@H](CCC(=O)N[C@@H](CCC(=O)NCCOCCOCC(=O)NCCOCCOCC(=O)NCCOCCOCC(=O)NCCCC[C@H](NC(=O)[C@H](CC(C)C)NC(=O)[C@H](CCCCN)NC(=O)[C@H](CCCNC(=N)N)NC(=O)C(C)(C)NC(=O)[C@H](CO)NC(=O)[C@H](Cc1cccc2ccccc12)NC(=O)[C@@H](NC(=O)[C@H](CO)NC(=O)[C@H](CCCC)NC(=O)CNC(=O)[C@H](CCC(=O)O)NC(=O)C(C)(C)NC(=O)C(C)(C)NC(=O)[C@@H](NC(=O)[C@H](CCCCNC(C)=O)NC(=O)[C@H](C)NC(=O)[C@H](CCCNC(=N)N)NC(=O)[C@@H](NC(=O)[C@H](CCCCN)NC(=O)[C@H](CCC(=O)O)NC(=O)[C@H](CCCNC(=N)N)NC(=O)CNC(=O)[C@H](CCC(=O)O)NC(=O)[C@H](CC(C)C)NC(C)=O)C(C)C)[C@@H](C)CC)[C@@H](C)O)C(N)=O)C(=O)O)C(=O)O)C(=O)O [compound 87] (Ac-LEGREKVRAK(Ac)I[Aib][Aib]EG[Nle]ST[1Nal]S[Aib]RKLK([AEEA-AEEA-AEEA-γGlu-γGlu-γGlu-Stearoyl])-NH2)
92	0.21	CCCCCCCCCCCCCCCCCC(=O)N[C@@H](CCC(=O)N[C@@H](CCC(=O)N[C@@H](CCC(=O)NCCOCCOCC(=O)NCCOCCOCC(=O)NCCOCCOCC(=O)NCCCC[C@H](NC(=O)[C@H](CCCCNC(C)=O)NC(=O)[C@H](CCCC[N+](C)(C)C)NC(=O)[C@H](CCCNC(=N)NC)NC(=O)C(C)(C)NC(=O)[C@H](CO)NC(=O)[C@H](Cc1c[nH]c2ccccc12)NC(=O)[C@@H](NC(=O)[C@H](CO)NC(=O)[C@H](CCCC)NC(=O)CNC(=O)[C@H](CCC(=O)O)NC(=O)C(C)(C)NC(=O)C(C)(C)NC(=O)[C@@H](NC(=O)[C@H](CCCCNC(C)=O)NC(=O)[C@H](C)NC(=O)[C@H](CCCNC(=N)N)NC(=O)[C@@H](NC(=O)[C@H](CCCCN)NC(=O)[C@H](CCC(=O)O)NC(=O)[C@H](CCCNC(=N)N)NC(=O)CNC(=O)[C@H](CCC(=O)O)NC(=O)[C@H](CC(C)C)NC(C)=O)C(C)C)[C@@H](C)CC)[C@@H](C)O)C(N)=O)C(=O)O)C(=O)O)C(=O)O [compound 137] (Ac-LEGREKVRAK(Ac)I[Aib][Aib]EG[Nle]STWS[Aib][Arg(Me)][Lys(Me3)]K(Ac)K([AEEA-AEEA-AEEA-γGlu-γGlu-γGlu-Stearoyl])-NH2)
93		CCCCCCCCCCCCCCCCC(=O)N[C@@H](CCC(=O)N[C@@H](CCC(=O)N[C@@H](CCC(=O)NCCOCCOCC(=O)NCCOCCOCC(=O)NCCOCCOCC(=O)NCCCC[C@H](NC(=O)[C@H](CCCCNC(C)=O)NC(=O)[C@H](CCCCN)NC(=O)[C@H](CCCNC(=N)N)NC(=O)C(C)(C)NC(=O)[C@H](CO)NC(=O)[C@H](Cc1c[nH]c2ccccc12)NC(=O)[C@@H](NC(=O)[C@H](CO)NC(=O)[C@H](CCCC)NC(=O)CNC(=O)[C@H](CCC(=O)O)NC(=O)C(C)(C)NC(=O)C(C)(C)NC(=O)[C@@H](NC(=O)[C@H](CCCCNC(C)=O)NC(=O)[C@H](C)NC(=O)[C@H](CCCNC(=N)N)NC(=O)[C@@H](NC(=O)[C@H](CCCCN)NC(=O)[C@H](CCC(=O)O)NC(=O)[C@H](CCCNC(=N)N)NC(=O)CNC(=O)[C@H](CCC(=O)O)NC(=O)[C@H](CC(C)C)NC(C)=O)C(C)C)[C@@H](C)CC)[C@@H](C)O)C(N)=O)C(=O)O)C(=O)O)C(=O)O [compound 164] (Ac-LEGREKVRAK(Ac)I[Aib][Aib]EG[Nle]STWS[Aib]RKK(Ac)K([AEEA-AEEA-AEEA-γGlu-γGlu-γGlu-Heptadecanoyl])-NH2)
